# Experimental data: patent publication US20220106275A1, “RADIOLABELED COMPOUNDS AND USES THEREOF” (The Trustees of Columbia University in the City of New York, priority 2019, published 2022)
# pIC50: −log10 of the molar value.
# Key:
# [1] = test system: COX-2-positive BxPC3 cells; test: Cell uptake of [18F]FMTP in COX-2-positive BxPC3 cells, with blocking; type: cell-based, human
# [2] = test system: COX-2; conditions: cited from earlier work
# [3] = test system: COX-2; conditions: baboon brain; cited from earlier work
# [4] = target: T1, COX-2 (Homo sapiens, UniProt P35354); conditions: cited from earlier work
# T1 sequence (P35354 18-604): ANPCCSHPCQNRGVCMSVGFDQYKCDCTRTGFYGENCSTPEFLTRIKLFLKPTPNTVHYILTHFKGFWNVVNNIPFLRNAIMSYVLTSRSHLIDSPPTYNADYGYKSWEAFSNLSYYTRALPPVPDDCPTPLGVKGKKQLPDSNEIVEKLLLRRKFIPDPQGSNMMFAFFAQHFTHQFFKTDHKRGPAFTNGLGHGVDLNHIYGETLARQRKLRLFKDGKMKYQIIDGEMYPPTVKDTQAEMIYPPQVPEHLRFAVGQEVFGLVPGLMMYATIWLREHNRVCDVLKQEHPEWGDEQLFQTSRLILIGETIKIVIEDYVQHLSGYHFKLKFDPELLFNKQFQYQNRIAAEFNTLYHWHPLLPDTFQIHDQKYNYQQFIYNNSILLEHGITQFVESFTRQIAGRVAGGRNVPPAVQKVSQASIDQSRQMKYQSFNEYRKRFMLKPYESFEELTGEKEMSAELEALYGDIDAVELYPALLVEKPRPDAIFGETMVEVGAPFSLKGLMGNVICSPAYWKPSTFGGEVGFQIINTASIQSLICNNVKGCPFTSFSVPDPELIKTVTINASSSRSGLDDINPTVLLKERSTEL
# [5] = target: T2, COX-2 (Mus musculus, UniProt Q05769); test: MicroPET imaging of [18F]FMTP in LPS-induced neuroinflammation mice vs PBS-treated mice; type: in vivo; conditions: 24 hours after intracranial 5 μg LPS (FIG. 5)
# T2 construct: from tissue; host or cells: brain of living male white mice, LPS- or PBS-injected
# T2 sequence (Q05769 18-604): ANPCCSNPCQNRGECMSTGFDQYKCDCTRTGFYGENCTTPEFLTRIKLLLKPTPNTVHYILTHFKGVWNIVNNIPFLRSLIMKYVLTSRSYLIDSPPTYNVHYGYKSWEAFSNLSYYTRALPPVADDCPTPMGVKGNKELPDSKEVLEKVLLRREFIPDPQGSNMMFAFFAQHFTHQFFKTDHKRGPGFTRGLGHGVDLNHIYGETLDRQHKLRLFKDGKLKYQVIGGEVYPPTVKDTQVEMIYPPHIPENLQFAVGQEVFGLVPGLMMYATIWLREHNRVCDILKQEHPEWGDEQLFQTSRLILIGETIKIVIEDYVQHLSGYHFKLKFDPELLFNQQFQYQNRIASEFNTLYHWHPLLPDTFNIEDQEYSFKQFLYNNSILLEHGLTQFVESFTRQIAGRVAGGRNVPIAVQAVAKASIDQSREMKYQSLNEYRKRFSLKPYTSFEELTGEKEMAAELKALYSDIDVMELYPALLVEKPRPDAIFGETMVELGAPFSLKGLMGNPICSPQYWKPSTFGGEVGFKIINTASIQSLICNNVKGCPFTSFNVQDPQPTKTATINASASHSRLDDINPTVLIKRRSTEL
# Protocol: (§1) The radiochemical synthesis of [^18F]FMTP and [^18F]FMPP were optimized using a chlorine-to-fluorine displacement method, by reacting ^18F-fluoride/K222/K2CO3 with the corresponding chlorine precursor molecules. […] Dynamic microPET image acquisition was performed in anesthetized nude mice, LPS-induced neuroinflammation mice, and PBS-administered control mice using […].
# Animals (male white mice) were anesthetized with isoflurane (l %-2% isoflurane in 100% oxygen) using a nose cone, and a 29-gauge needle connected to a catheter was placed into the lateral tail vein. For neuroinflammation, mice were stereotactically injected with 5 μg of LPS or PBS (controls) in the brain and imaging experiments conducted 24 hours later. […] The standardized uptake values (“SUVs”) were estimated using a calibration factor calculated from the phantom study and time activity curves (“TACs”) were derived from VOIs in the series of reconstructed images.
# FIGS. 3A-3D show the summed early frames (0-10 minute) and total frames (0-40 minute) of microPET images. […] TACs also indicated an initial rapid influx of radioactivity followed by rapid washout (FIG. 4). […] Highest radioactivity outside the heart was found in liver, and the delay to peak at 5-10 minutes was probably due to the accumulation of radioactive metabolite(s). […]
# [6] = test system: COX-2-negative PANC-1 cells; test: Cell uptake of [18F]FMTP in COX-2-negative PANC-1 cells, with blocking; type: cell-based, human
# Protocol: as §1
# BxPC3 and PANC-1 human pancreas carcinoma cell lines were plated on a 24-well plate at 2×10^5 cells/well. After 48 hours, [^18F]FMTP was added (2.0 μCi/mL) to the cell medium for 30 minutes. […] After incubation with [^18F]FMTP, cells were washed 4 times with cold PBS, lysed with 0.1 N NaOH, and counted in a gamma counter (Hidex AMG, LabLogic, Tampa, Fla.).
# Proof-of-concept and selectivity of [^18F]FMTP binding to COX-2 was examined by evaluating the tracer uptake in COX-2-positive BxPC3 and a control COX-2-negative PANC1 human pancreatic carcinoma cell lines. FIG. 2 illustrates a >2-fold uptake of [^18F]FMTP in BxPC3 cells compared with PANC1 cells. Values shown in FIG. 2 are the mean±standard deviation (“SD”) from four independent experiments.
# [7] = Dynamic microPET imaging of [18F]FMTP in normal mice; type: in vivo
# Protocol: as §1
# Animals (male white mice) were anesthetized with isoflurane (l %-2% isoflurane in 100% oxygen) using a nose cone, and a 29-gauge needle connected to a catheter was placed into the lateral tail vein. For neuroinflammation, mice were stereotactically injected with 5 μg of LPS or PBS (controls) in the brain and imaging experiments conducted 24 hours later. The animal was placed in prone position on the platform of the scanner and moved into the center of the field of view guided by laser beam calibration. Immediately after scan start, [^18F]FMTP (˜2.5 MBq […] in 20% ethanol-saline solution) was injected through the tail-vein catheter manually. The error caused by the injector and catheter was corrected by subtracting the remaining dose. 40-minute dynamic imaging was acquired on a microPET scanner (Siemens Inveon). The acquired list-mode data were reconstructed with 3D ordered subset expectation maximization (OSEM) algorithm using the software of Siemens Inveon Acquisition Workplace with a framing protocol of 2×30 seconds, 4×60 seconds, 3×120 seconds, 3×180 seconds, and 4×300 seconds. Using PMOD software (version 4.0, Switzerland), three-dimensional ellipsoid volume of interests (“VOIs”) ranging from 2-to-6 mm were placed manually at the center of the brain, heart (blood-pool), liver, proximal humerus (bone), and posterior cervical muscle. The standardized uptake values (“SUVs”) were estimated using a calibration factor calculated from the phantom study and time activity curves (“TACs”) were derived from VOIs in the series of reconstructed images.
# FIGS. 3A-3D show the summed early frames (0-10 minute) and total frames (0-40 minute) of microPET images. Crosses in FIGS. 3A-3D represent the region with brain. […] TACs also indicated an initial rapid influx of radioactivity followed by rapid washout (FIG. 4). The uptake of [^18F]FMTP peaked around 1 minute in heart and brain, and then decreased rapidly. The absence of retention of [^18F]FMTP activity in these organs was predicted due to low COX-2 expression in normal mouse brain. Highest radioactivity outside the heart was found in liver, and the delay to peak at 5-10 minutes was probably due to the accumulation of radioactive metabolite(s). […] The binding of [^18F]FMTP in LPS-induced neuroinflammation in mice was studied in comparison to vehicle (PBS)-treated-mice. Intracranial injection of LPS in mice is known to generate COX-2 induction and neuroinflammation after around 24 hours. Therefore, PET imaging of LPS treated mice was performed after 24 hours with [^18F]FMTP, and an approximately 2-fold increase of tracer binding was found in brain compared with PBS-treated mice (FIG. 5). […] MicroPET data correlated with autoradiography performed in brain sections of microPET imaged animals using [^18F]FMTP.
# [8] = test system: xenografts; conditions: cited from earlier work
smiles,measurement,setting,value
CS(=O)(=O)c1ccc(-c2nc(F)cc(NCc3nccs3)n2)cc1 [FMTP],blocking of [18F]FMTP binding in BxPC3 cells,[1]; blocker 5 μM added 30 minutes before [18F]FMTP,substantially blocked
COc1cc(NCc2cccs2)nc(-c2ccc(S(C)(=O)=O)cc2)n1 [MC1],specific binding in CNS and periphery organs,[2]; cold (non-radiolabeled) MC1,no specific binding
"CS(=O)(=O)c1ccc(-c2nc(NCc3cccs3)cc(O[11CH3])n2)cc1 [[^11C]MC1, [^11C]-6-methoxy-2-(4-(methylsulfonyl)phenyl)-N-(thiophen-2-ylmethyl)pyrimidin-4-amine]",binding to COX-2 in neuroinflammation,[2]; animal models of neuroinflammation,increased binding to COX-2
same,detection of constitutive or low level COX-2 in brain,[2]; conditions without inflammation,failed to detect
"CS(=O)(=O)c1ccc(-c2noc(C(F)(F)F)c2-c2ccccc2)cc1 [[^11C]TMI, [^11C]-3-(4-methylsulfonylphenyl)-4-phenyl-5-trifluoromethyl isoxazole]",blocking of constitutive COX-2 level in brain,[3],partial blocking
"CS(=O)(=O)c1ccc(-c2nc(F)cc(NCc3nccs3)n2)cc1 [[^18F]FMTP, [^18F]-6-fluoro-2-(4-(methylsulfonyl)phenyl)-N-(thiazol-2-ylmethyl)pyrimidin-4-amine]",pIC50,[4],8.60
"CS(=O)(=O)c1ccc(-c2nc([18F])cc(NCc3nccs3)n2)cc1 [[^18F]FMTP, [^18F]-6-fluoro-2-(4-(methylsulfonyl)phenyl)-N-(thiazol-2-ylmethyl)pyrimidin-4-amine]",increase of tracer binding in brain of LPS-treated compared with PBS-treated mice,[5],approximately 2 fold
same,uptake of [18F]FMTP in BxPC3 cells compared with PANC1 cells,"[1]; 2.0 μCi/mL, 30 minutes, mean of four independent experiments (FIG. 2)",> 2 fold
same,binding to PANC1 cells,"[6]; 2.0 μCi/mL, 30 minutes",negligible binding
same,specific binding in PANC1 cells with FMTP or celecoxib block,[6]; blockers 5 μM,no specific binding
same,uptake in spine and skeleton (de[18F]fluorination),[7]; microPET,did not show uptake in spine and skeleton
same,washout of activity from brain,"[7]; microPET, 0-40 minute",fast washout
same,BBB penetration,"[7]; microPET, tail-vein injection",penetrated the BBB
same,time of peak uptake in heart and brain,[7]; time activity curves (FIG. 4),around 1 minute
same,time of peak radioactivity in liver,"[7]; time activity curves, delay ascribed to radioactive metabolite(s)",5 to 10 min
CS(=O)(=O)c1ccc(-c2cc(C(F)(F)F)nc(NCc3ccc([18F])cc3)n2)cc1 [[^18F]Pyricoxib],binding in xenografts in vivo,[8],only modest binding
same,uptake in brain,[8]; in vivo,did not show significant uptake in brain
